Consider twelve compounds from publication PMC6177235 (Bioorganic & medicinal chemistry, 2018).

For data set [1], the system named is mitochondrial transmembrane potential (MTP) in HT-29 cells. Description: Mitochondrial transmembrane potential. The class given is cell-based, human.
For the next data set, the system named is melanoma tumor. As to conditions: cited from earlier work.
The test system of data set [2] is HT-29, MDA-MB-231, MDA-MB-435 and OVCAR3 human cancer cell lines. Kind of data set: Cytotoxicity assays, statements on the whole panel of cell lines. As to conditions: all cytotoxicity assays used.
The next data set deals with NF-κB p65 in HeLa cells (Homo sapiens, UniProt Q04206). Description: Enzyme-based ELISA assay for NF-κB inhibition. The data set is classed as cell-based. (ELISA stands for enzyme-linked immunosorbent assay.)
NF-κB p65 in HeLa cells, sequence (Q04206 whole entry): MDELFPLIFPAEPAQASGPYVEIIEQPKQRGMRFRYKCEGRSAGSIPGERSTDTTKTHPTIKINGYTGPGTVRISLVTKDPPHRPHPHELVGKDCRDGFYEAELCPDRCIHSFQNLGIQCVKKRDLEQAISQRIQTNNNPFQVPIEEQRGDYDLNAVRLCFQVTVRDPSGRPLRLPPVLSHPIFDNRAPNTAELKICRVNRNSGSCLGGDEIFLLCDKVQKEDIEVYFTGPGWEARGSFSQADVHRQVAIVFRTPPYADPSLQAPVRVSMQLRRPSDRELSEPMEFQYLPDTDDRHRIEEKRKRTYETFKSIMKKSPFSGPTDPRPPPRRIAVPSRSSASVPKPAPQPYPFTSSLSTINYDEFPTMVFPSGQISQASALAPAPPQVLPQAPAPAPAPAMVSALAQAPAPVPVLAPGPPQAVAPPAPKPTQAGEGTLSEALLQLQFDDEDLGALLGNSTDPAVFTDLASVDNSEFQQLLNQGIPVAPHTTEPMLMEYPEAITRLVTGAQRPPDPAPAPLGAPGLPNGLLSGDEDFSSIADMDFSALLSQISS
The nature of data set [3]: Cytotoxicity assays, statements on the whole panel of cell lines. The note with it: human.
Data set [4] concerns OVCAR3 human ovarian cancer cell line. Description: Cytotoxicity assay, OVCAR3 cells. As to conditions: OVCAR-3, 72 h, read-out: IC50 toward OVCAR3 cells. The data set is classed as cell-based.
The subject of data set [5] is DU145 human prostate cancer cells. The note with it: prostate tumor model; cited from earlier work.
Another data set can be described thus: in vitro. The note with it: human.

Usually IC50 stands for the midpoint of a concentration-inhibition curve.

The structures appear in SMILES notation. Converted amounts (≈) assume the structure as drawn. “Also recorded” adds a separate entry of the source.

Take `C=C(C)[C@@H]1CC[C@]2(C(=O)O)CC[C@]3(C)[C@H](CC[C@@H]4[C@@]5(C)CC[C@H](O)C(C)(C)[C@@H]5CC[C@]43C)[C@@H]12` [Compound 9, (+)-betulinic acid]: in data set [1], the “activity in the MTP inhibition assay (in words)” value is reported as “same potency as 1; also recorded: active”. In addition, the “melanoma tumor growth in vivo” value with melanoma tumor (mice) was “inhibit completely”. In addition, the “toxicity observed in mice” value with melanoma tumor (mouse, in vivo) is given as “without any obvious toxicity”. Moreover, the “activity in the cytotoxicity assays (in words)” value in data set [2] is given as “Neither 8 nor 9 showed activity”.
With `C=C(C)[C@@H]1CC[C@]2(C(=O)OC)CC[C@]3(C(=O)O)[C@H](CC[C@@H]4[C@@]5(C)CC[C@H](O)C(C)(C)[C@@H]5CC[C@]43C)[C@@H]12` [Compound 3, (+)-melaleucic acid 28-methyl ester], on NF-κB p65 in HeLa cells, the “activity in the NF-κB inhibition assay (in words)” value was “exhibited activity”. Also, the IC50 at 72 h in data set [3] is over 10 µM.
For `C=C(C)[C@@H]1CC[C@]2(C(=O)O)CC[C@]3(CO)[C@H](CC[C@@H]4[C@@]5(C)CC[C@H](O)C(C)(C)[C@@H]5CC[C@]43C)[C@@H]12` [Compound 6, (+)-cylicodiscic acid], the half-inhibitory concentration (IC50) at 72 h in data set [3] is over 10 µM.
As for `CC1(C)CC[C@]2(CO)CC[C@]3(C)C(=CC[C@@H]4[C@@]5(C)CC[C@H](O)C(C)(C)[C@@H]5CC[C@]43C)[C@@H]2C1` [Compound 11, (+)-erythrodiol], the “activity in the MTP inhibition assay (in words)” value in data set [1] is reported as “did not show any activities”. Further, the “activity in the NF-κB inhibition assay (in words)” value at NF-κB p65 in HeLa cells was “did not show any activities”. For the same compound, the “activity in the cytotoxicity assays (in words)” value in data set [2] is “did not show any activities”.
Regarding `C[C@H]1[C@H](C)CC[C@]2(CO)CC[C@]3(C)C(=CC[C@@H]4[C@@]5(C)CC[C@H](O)C(C)(C)[C@@H]5CC[C@]43C)[C@H]12` [Compound 10, (+)-uvaol], in data set [1], the “activity in the MTP inhibition assay (in words)” value is listed as “did not show any activities”. Moreover, on NF-κB p65 in HeLa cells, the “activity in the NF-κB inhibition assay (in words)” value is reported as “did not show any activities”. Also, the “activity in the cytotoxicity assays (in words)” value in data set [2] is listed as “did not show any activities”.
As for `C=C(C)[C@@H]1CC[C@]2(C(=O)O)CC[C@]3(C)[C@H](CC[C@@H]4[C@@]5(C)C[C@@H](O)[C@H](O)C(C)(C)[C@@H]5CC[C@]43C)[C@@H]12` [Compound 5, (+)-alphitolic acid], the “activity in the NF-κB inhibition assay (in words)” value on NF-κB p65 in HeLa cells is “exhibited activity”. The compound also had an IC50 at 72 h in data set [3] of over 10 µM.
On to `C=C(C)[C@@H]1CC[C@]2(C(=O)O)CC[C@]3(C)[C@H](CC[C@@H]4[C@@]5(C)CC[C@H](OC(=O)/C=C/c6ccc(O)c(OC)c6)C(C)(C)[C@@H]5CC[C@]43C)[C@@H]12` [S13, (+)-3β-O−tram,-feruloylbetulinic acid], for which the “activity in the MTP inhibition assay (in words)” value in data set [1] was “active”. Further, the “activity in the NF-κB inhibition assay (in words)” value on NF-κB p65 in HeLa cells is reported as “exhibited activity”. Besides, the IC50 at 72 h in data set [3] was over 10 µM.
For `C[C@H]1[C@H](C)CC[C@]2(C(=O)O)CC[C@]3(C)C(=CC[C@@H]4[C@@]5(C)CC[C@H](O)C(C)(C)[C@@H]5CC[C@]43C)[C@H]12` [Compound 1, (+)-ursolic acid], the IC50 in data set [4] is 12.9 µg/mL (≈ 28.2 µM). In addition, the mouse body weight entry in data set [5] is on record as “without significant decrease”.
In “in vitro”, `C=C(C)[C@@H]1CC[C@]2(C(=O)O)CC[C@]3(C)[C@H](CC[C@@H]4[C@@]5(C)C[C@@H](O)[C@H](OC(=O)/C=C/c6ccc(O)cc6)C(C)(C)[C@@H]5CC[C@]43C)[C@@H]12` [Compound 7, (+)-3-O−β-trans-p−coumaroylalphitolic acid] gave an IC50 at 72 h of over 10 µM. The “activity in the NF-κB inhibition assay (in words)” value on NF-κB p65 in HeLa cells is “exhibited activity”.
As to `CC1(C)CC[C@]2(C(=O)O)CC[C@]3(C)C(=CC[C@@H]4[C@@]5(C)CC[C@H](O)C(C)(C)[C@@H]5CC[C@]43C)[C@@H]2C1` [Compound 8, (+)-oleanolic acid], in data set [1], the “activity in the MTP inhibition assay (in words)” value was “inactive”. Moreover, the “activity in the cytotoxicity assays (in words)” value in data set [2] was “Neither 8 nor 9 showed activity”.
Turning to `C=C(C)[C@@H]1CC[C@]2(CO)CC[C@]3(C)[C@H](CC[C@@H]4[C@@]5(C)CC[C@H](O)C(C)(C)[C@@H]5CC[C@]43C)[C@@H]12` [Compound 12, (+)-betulin], the “activity in the MTP inhibition assay (in words)” value in data set [1] was “did not show any activities; also recorded: inactive”. In addition, at NF-κB p65 in HeLa cells, the “activity in the NF-κB inhibition assay (in words)” value is reported as “exhibited activity”. Besides, in data set [3], the IC50 at 72 h is over 10 µM. For the same compound, in data set [2], the “activity in the cytotoxicity assays (in words)” value is given as “did not show any activities”.
Compound `C=C(C)[C@@H]1CC[C@]2(C(=O)O)CC[C@]3(C(=O)O)[C@H](CC[C@@H]4[C@@]5(C)CC[C@H](O)C(C)(C)[C@@H]5CC[C@]43C)[C@@H]12` [Compound 4, (+)-melaleucic acid] displayed an IC50 at 72 h in data set [3] of over 10 µM.
